In PubChem BioAssay (NCI) one finds TGI data, which are given here for 10 compounds.

Common to all, as to experiment: NCI tumour cell line growth inhibition, 48 h
For experiment [1], the system named is A549 NSCLC.
For experiment [2], the system named is COLO 205 colon.
Experiment [3] concerns EKVX NSCLC.
In experiment [4] the test system is HT29 colon.
In experiment [5] the test system is LOX IMVI melanoma.
For experiment [6], the system named is NCI-H460 lung.
In experiment [7] the test system is SK-MEL-28 melanoma.
Experiment [8] has as its system SNB-75 CNS.
In experiment [9] the test system is SW-620 colon.
For experiment [10], the system named is UO-31 renal.

Structures are written as SMILES.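 Growth conditions: 96-well plates. Treatment: test compound, 48 hours, 5 concentrations. Analysis: linear interpolation between bracketing concentrations; unreached endpoints set to highest concentration. At the TGI there is no net growth.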

As to `N#Cc1c(-c2ccc(Cl)cc2)c2c([nH]c1=O)-c1cc([N+](=O)[O-])ccc1CCC2`, the TGI came out at 82.9 µM in experiment [1]; 49.7 µM in experiment [2]; 51.2 µM in experiment [3]; 75.5 µM in experiment [4]; 37.9 µM in experiment [5]; 42.5 µM in [6]. Moreover, the TGI in [7] is 63.6 µM; in [8] it was 78.3 µM; in [9], over 100 µM; in [10], 32.5 µM.
Turning to `O=S(=O)(O)c1ccc2c(N=Nc3ccccc3)c(O)ccc2c1`, the TGI in [1], in experiment [2], in experiment [3], in experiment [4], in experiment [5] and in experiment [6] was over 100 µM throughout. The TGI in experiment [7], in experiment [8], in experiment [9] and in experiment [10] was over 100 µM each time.
On to `COc1ccc(N=Nc2c(N)nn(C)c2N)cc1`, for which the TGI in [1], in experiment [2], in [3], in [4], in [5] and in [6] was over 100 µM each time. Moreover, the TGI in experiment [7], in experiment [8], in experiment [9] and in experiment [10] was over 100 µM throughout.
With `CCCCCCCCCCCCSC(=S)c1c(C)[nH]n(CCCCCCCCCCCC)c1=O`, the TGI in [1] is over 100 µM; in experiment [2], over 100 µM; in [3], 81.1 µM; in experiment [4], over 100 µM; in experiment [5], over 100 µM; in experiment [6], over 100 µM. Further, the TGI in experiment [7], in experiment [8], in experiment [9] and in experiment [10] was over 100 µM in each case.
Consider `CCN(CCO)CCNc1ccc(C)c2sc3ccccc3c(=O)c12`, for which the TGI in experiment [1] came out at 15.2 µM; in experiment [2], 3.12 µM; in experiment [3], 26.8 µM; in experiment [4] it was 6.31 µM; in experiment [5], 5.18 µM; in experiment [6], 3.88 µM. Besides, the TGI turned out to be 3.77 µM in experiment [7], 12 µM in [8], 5.5 µM in experiment [9] and 15 µM in experiment [10].
As for `COP(=O)(OC)[C@H](O)[C@H]1C[C@@H]1c1ccccc1`, the TGI in experiment [1], in experiment [2], in experiment [3], in experiment [4], in experiment [5] and in experiment [6] was over 100 µM in each case. The TGI in [7], in experiment [8], in [9] and in experiment [10] was over 100 µM throughout.
Consider `O=C(CSSCC(=O)OCCS(=O)(=O)Nc1ccc(Br)cc1)OCCS(=O)(=O)Nc1ccc(Br)cc1`, for which the TGI is over 100 µM in experiment [1]; 62.2 µM in [2]; over 100 µM in experiment [3]; 31.8 µM in [4]; 42.3 µM in experiment [5]; over 100 µM in experiment [6]. Further, the TGI was 96.4 µM in experiment [7], 66.6 µM in experiment [8], 44.2 µM in [9] and over 100 µM in [10].
Regarding `O=c1[nH]c2cc([N+](=O)[O-])c(N/N=C/c3ccc(Cl)cc3Cl)c([N+](=O)[O-])c2[nH]1`, the TGI in [1], in [2], in experiment [3], in experiment [4], in experiment [5] and in [6] was over 100 µM in each case. The TGI in [7], in [8], in experiment [9] and in [10] was over 100 µM in each case.
`Cn1cc(-c2nnc(-c3ccc(Cl)cc3)[nH]c2=O)c2ccccc21`: the TGI in experiment [1] was over 100 µM; in experiment [2] it was over 100 µM; in experiment [3], over 64.9 µM; in experiment [4] it was over 24.6 µM; in experiment [5] it was over 100 µM; in [6], over 44.1 µM. Also, the TGI is over 100 µM in [7], 35.1 µM in [8], over 64.6 µM in experiment [9] and over 47 µM in experiment [10].
As to `CCOC(=O)/C(=C\NC(C)(C)CO)c1nc2ccccc2[nH]1`, the TGI in experiment [1], in experiment [2], in [3], in [4], in experiment [5] and in experiment [6] was over 100 µM each time. Besides, the TGI in experiment [7] is over 100 µM; in experiment [8] it was over 100 µM; in experiment [9], over 100 µM; in [10], 11.7 µM.
